Experimental data taken from patent US5057325A, “Method of inhibiting replication of HIV with water-soluble melanins” (Vanderbilt University, priority 1990, dated 1991).

System: HIV-1 (HTLV-IIIB)
Format: cell-based
Details: at 1-100 μg/ml; in these assays (HTLV-IIIB, HTLV-IIIRF, HIV-2ROD infection of MT-2 cells)
Excerpt: The activity of the melanins for inhibiting replication of HIV can be confirmed by known assays, including particularly the assay described by Montefiori, et al., J. Clin. Microb., 26:231-235, 1988. That assay utilizes human T-cell lymphotropic virus type I-immortalized MT-2 cells as targets for infection. Cytolysis can be quantitated by vital dye uptake of poly-L-lysine-adhered cells as an endpoint for infection. The MT-cell assay has now been accepted as a standard screening test.
Antiviral activities of the synthetic water-soluble melanins derived as described in Example I from L-tyrosine, L-dopa, dopamine, serotonin, norepinephrine, L-dopa/glutathione, and L-dopa/ L-cysteine were measured in 96 well microdilution plates as described (Montefiori, et al., J. Clin. Microbiol. 26:231-235, 1988). Briefly, 2-fold serial dilutions of melanins were made in triplicate in a total of 100 ul growth medium (RPMI-1640 containing 12% heat-inactivated fetal bovine serum and 50 ug gentamicin/ml) per well. MT-2 cells (5×10^4) in 100 ul of growth medium were added to each well and incubated for 10 minutes. […] Viral-induced cytopathic effect (CPE) was quantitated 3 days later by vital dye (neutral red) uptake in remaining viable cells. […]

Substance: L-dopa
- antiviral activity: no antiviral activity

Substance: L-tyrosine
- antiviral activity: no antiviral activity
